According to patent publication US20240024273A1, “TOPICAL ADMINISTRATION OF 2-(DIETHYLAMINO)ETHYL 2-(4-ISOBUTYLPHENYL)PROPRIONATE FOR TREATMENT OF DISEASES” (TECHFIELDS PHARMA CO., LTD., priority 2020, published 2024):
Where two headings read alike, the source gives them in different places.

Legend:
[1] = system: Adjuvant-induced arthritis; assay: Adjuvant-induced arthritis; format: in vivo, Lewis rats; conditions: 10, 30 and 90 mg/kg daily, topical
[2] = 28-day GLP repeated dermal dose toxicity and toxicokinetics study; design: species or system Beagle dogs; conditions: beagle, dog, in vivo, topical or ocular, 28-day dermal
[3] = system: Mild to Moderate Osteoarthritis of the Knee; assay: Phase 2 study: use of rescue medication (paracetamol); format: in vivo, human
Experimental: Subjects taking nonsteroidal anti-inflammatory drugs (NSAID) or other analgesics may enroll in the trial, but will discontinue any analgesic therapy for the duration of the study, starting at least 4 days (or 5 half lives, whichever is longer) prior to administration of the first dose of study medication (i.e., for an analgesic washout period before Day 1). Subjects will be allowed to take rescue medication (up to six 325 mg tablets [total of 1950 mg] of acetaminophen per day; provided by the Sponsor) for residual knee or other body pain starting 4 days (or 5 half lives, whichever is longer) prior to administration of the first dose of study medication except during the 24 hours prior to Baseline (Day 1), Week 2, Week 4, Week 8, Week 12/end of study (EOS), and Follow up assessments.
Subjects will record the following information in a Daily Diary starting at Screening: the amount of knee pain in the target knee while walking during the preceding 24 hours (using a 100 mm visual analog scale [VAS]), the times and number of sprays for each administration of study medication, the times when the subject washes his/her knees and/or takes a shower, the number of tablets of rescue medication taken that day and the times taken, the reason for taking the rescue medication (e.g., knee pain, headache, low back pain), any other concomitant medications taken that day, and any AEs occurring that day.
3.9.3. Exploratory Efficacy Endpoints: • 1. Subject's global assessment of disease status of the target knee at 2, 4, 8, and 12 weeks of treatment; • 2. Investigator's global assessment of disease status of the target knee at 2, 4, 8, and 12 weeks of treatment; • 3. Subject's global assessment of response to therapy of the target knee at 2, 4, 8, and 12 weeks of treatment; • 4. Investigator's global assessment of response to therapy of the target knee at 2, 4, 8, and 12 weeks of treatment; • 5. Change from Baseline over time in VAS pain scores for the target knee from Daily Diary data; • 6. Amount of rescue medication (acetaminophen) consumed per day for target knee pain.
Zeidler thought that paracetamol as rescue medication in nearly all OA trials may be a missing link to explain at least partially the large placebo response in OA trials. (Henning Zeidler, Paracetamol and the Placebo Effect in Osteoarthritis Trials: A Missing Link? Pain Research and Treatment, Volume 2011, 1-6.) From published data, the difference of the used amount of paracetamol is very small between the placebo and active drug cohorts. […] (T. J. Schnitzer, A. Kivitz, H. Frayssinet, and B. Duquesroix, “Efficacy and safety of naproxcinod in the treatment of patients with osteoarthritis of the knee: a 13-week prospective, randomized, multicenter study.” Osteoarthritis and Cartilage, vol. 18, no. 5, pp. 629-639, 2010.) In this trial, NSAIDs or any analgesic therapy was discontinued for the duration of the study, starting at least 14 days (or 5 half lives, whichever is longer) prior to administration of the first dose of study medication (ie, for an analgesic washout period before Day 1). Subjects were allowed to take rescue medication (up to six 325 mg tablets [total of 1950 mg] of acetaminophen per day; provided by the Sponsor) for residual knee or other body pain starting at least 4 days (or 5 half lives, whichever is longer) prior to administration of the first dose of study medication except during the 24 hours prior to Baseline (Day 1), Week 2, Week 4, Week 8, Week 12/end of study (EOS), and Follow-up assessments.

[4] = for all pain and other conditions, 8.75 mg/knee (BID), Week 2
[5] = for all pain and other conditions, 8.75 mg/knee (BID), Week 4
[6] = for all pain and other conditions, 8.75 mg/knee (BID), Week 8
[7] = for all pain and other conditions, 8.75 mg/knee (BID), Week 12
[8] = for all pain and other conditions, 17.5 mg/knee (BID), Week 2

CCN(CC)CCOC(=O)C(C)c1ccc(CC(C)C)cc1 (stereo not shown) [2-(diethylamino)ethyl 2-(4-isobutylphenyl)propionate]
arthritis [1]: significantly inhibited arthritis. | NOAEL at 28 days ([2]; read-out: NOAEL (not attained; ulcers at application site at lowest dose)): < 12.4 mg/kg/day | NOAEL at 28 days ([2]; read-out: systemic NOAEL (tissues other than the dermal application site)): 24.8 mg/kg/day | patients using rescue medication at the end of the study ([3]; 8.75 mg/knee): 17.3% | Rescue medication (paracetamol) only for knee pain, daily amount ([3]; 8.75 mg/knee (BID), Day −2 to day −5 (baseline)): 349 mg/day/patient | Rescue medication (paracetamol) only for knee pain, daily amount ([3]; 8.75 mg/knee (BID), Week 2): 216 mg/day/patient | Rescue medication (paracetamol), % of decrease from baseline ([3]; 8.75 mg/knee (BID), Week 2): 38.1% | Rescue medication (paracetamol) only for knee pain, daily amount ([3]; 8.75 mg/knee (BID), Week 4): 167 mg/day/patient | Rescue medication (paracetamol), % of decrease from baseline ([3]; 8.75 mg/knee (BID), Week 4): 52.1% | Rescue medication (paracetamol) only for knee pain, daily amount ([3]; 8.75 mg/knee (BID), Week 8): 166 mg/day/patient | Rescue medication (paracetamol), % of decrease from baseline ([3]; 8.75 mg/knee (BID), Week 8): 52.4% | Rescue medication (paracetamol) only for knee pain, daily amount ([3]; 8.75 mg/knee (BID), Week 12): 159 mg/day/patient | Rescue medication (paracetamol), % of decrease from baseline ([3]; 8.75 mg/knee (BID), Week 12): 54.4% | patients using rescue medication at the end of the study ([3]; 17.5 mg/knee): 6.5% | Rescue medication (paracetamol) only for knee pain, daily amount ([3]; 17.5 mg/knee (BID), Day −2 to day −5 (baseline)): 243 mg/day/patient | Rescue medication (paracetamol) only for knee pain, daily amount ([3]; 17.5 mg/knee (BID), Week 2): 86 mg/day/patient | Rescue medication (paracetamol), % of decrease from baseline ([3]; 17.5 mg/knee (BID), Week 2): 64.6% | Rescue medication (paracetamol) only for knee pain, daily amount ([3]; 17.5 mg/knee (BID), Week 4): 67 mg/day/patient | Rescue medication (paracetamol), % of decrease from baseline ([3]; 17.5 mg/knee (BID), Week 4): 72.4% | Rescue medication (paracetamol) only for knee pain, daily amount ([3]; 17.5 mg/knee (BID), Week 8): 54 mg/day/patient | Rescue medication (paracetamol), % of decrease from baseline ([3]; 17.5 mg/knee (BID), Week 8): 77.8% | Rescue medication (paracetamol) only for knee pain, daily amount ([3]; 17.5 mg/knee (BID), Week 12): 56 mg/day/patient | Rescue medication (paracetamol), % of decrease from baseline ([3]; 17.5 mg/knee (BID), Week 12): 77.0% | use of rescue medication for all pain and other conditions ([3]; 17.5 mg/knee and 35 mg/knee groups, week 12): less than 100 mg/day/patient | patients using rescue medication at the end of the study ([3]; 35 mg/knee): 5.8% | Rescue medication (paracetamol) only for knee pain, daily amount ([3]; 35 mg/knee (BID), Day −2 to day −5 (baseline)): 291 mg/day/patient | Rescue medication (paracetamol) only for knee pain, daily amount ([3]; 35 mg/knee (BID), Week 2): 98 mg/day/patient | Rescue medication (paracetamol), % of decrease from baseline ([3]; 35 mg/knee (BID), Week 2): 66.3% | Rescue medication (paracetamol) only for knee pain, daily amount ([3]; 35 mg/knee (BID), Week 4): 88 mg/day/patient | Rescue medication (paracetamol), % of decrease from baseline ([3]; 35 mg/knee (BID), Week 4): 69.8% | Rescue medication (paracetamol) only for knee pain, daily amount ([3]; 35 mg/knee (BID), Week 8): 54 mg/day/patient | Rescue medication (paracetamol), % of decrease from baseline ([3]; 35 mg/knee (BID), Week 8): 81.4% | Rescue medication (paracetamol) only for knee pain, daily amount ([3]; 35 mg/knee (BID), Week 12): 44 mg/day/patient | Rescue medication (paracetamol), % of decrease from baseline ([3]; 35 mg/knee (BID), Week 12): 84.9% | Daily amount of rescue medication (paracetamol) ([3]; for all pain and other conditions, 8.75 mg/knee (BID), Day −2 to day −5 (baseline)): 364 mg/day/patient | Daily amount of rescue medication (paracetamol) [3, 4]: 263 mg/day/patient | Rescue medication (paracetamol), % of decrease from baseline [3, 4]: 27.7% | Daily amount of rescue medication (paracetamol) [3, 5]: 208 mg/day/patient | Rescue medication (paracetamol), % of decrease from baseline [3, 5]: 42.9% | Daily amount of rescue medication (paracetamol) [3, 6]: 210 mg/day/patient | Rescue medication (paracetamol), % of decrease from baseline [3, 6]: 42.3% | Daily amount of rescue medication (paracetamol) [3, 7]: 209 mg/day/patient | Rescue medication (paracetamol), % of decrease from baseline [3, 7]: 42.6% | Daily amount of rescue medication (paracetamol) ([3]; for all pain and other conditions, 17.5 mg/knee (BID), Day −2 to day −5 (baseline)): 278 mg/day/patient | Daily amount of rescue medication (paracetamol) [3, 8]: 136 mg/day/patient | Rescue medication (paracetamol), % of decrease from baseline [3, 8]: 51.1%
